This is an account of results in US4073903A, “3-Desacetoxymethyl-3- 5'(1-methyltetrazolyl)thio!methyl-7- 1-(4-nitr oimidazolyl)acetyl!aminocephalosporanic acid” (Pierrel S.p.A., priority 1975, dated 1978).

Assay [1] has as its system Streptococcus faecalis. Nature of the assay: MIC, twofold serial broth dilution (Table I). The assay is classed as cell-based. As to conditions: Enterococcus faecalis; strain ISM 66/54; Tryptose Phosphate Broth; 37° C, 24 hours; read-out: Minimum inhibitory concentration (MIC). In general terms: Broth dilution looks for growth in wells or tubes with falling amounts of substance.

Assay [2] concerns Streptococcus uberis. Kind of assay: MIC, twofold serial broth dilution (Table I). It counts as cell-based. Particulars: ATCC9927, strain ATCC 9927, Todd Hewitt Broth, 37° C, 24 hours, read-out: Minimum inhibitory concentration (MIC).
For assay [3], the system named is Escherichia coli. Nature of the assay: Treatment of mice systemically infected with Escherichia coli (Table V). Particulars: in Mus musculus, 168 h, read-out: ED50 per treatment.
The test system of assay [4] is Pasteurella multocida. Nature of the assay: MIC, twofold serial broth dilution (Table I). The assay is classed as cell-based. As to conditions: ATCC6588, strain ATCC 6588, Tryptose Broth, 37° C, 24 hours, read-out: Minimum inhibitory concentration (MIC).
Assay [5] deals with Pseudomonas aeruginosa. Kind of assay: MIC, twofold serial broth dilution (Table I). It counts as cell-based. Particulars: strain ISM-LRP 9, Tryptose Phosphate Broth, 37° C, 24 hours, read-out: Minimum inhibitory concentration (MIC).
Assay [6] deals with Serratia marcescens. Nature of the assay: MIC, twofold serial broth dilution (Table I). The assay is classed as cell-based. Particulars: strain ISM 68/189, Mueller Hinton Broth, 37° C, 24 hours, read-out: Minimum inhibitory concentration (MIC).
For assay [7], the system named is Salmonella essen. Kind of assay: MIC against Ampicillin-resistant clinical isolates, broth dilution test (Table IV). As to conditions: Salmonella enterica, 24 h, read-out: Minimun inhibitory concentration (MIC).
For assay [8], the system named is Brucella suis. Kind of assay: microbe, parasite or virus in culture. The assay is classed as cell-based. As to conditions: 24 h, read-out: Minimum inhibitory concentration (MIC).

The ED50 is the midpoint of the dose-response relation.

Structures are written as SMILES. Converted amounts (≈) assume the structure as drawn. Some results are limits rather than exact numbers.

On to `Cn1nnnc1SCC1=C(C(=O)O)N2C(=O)C(NC(=O)Cn3cnc([N+](=O)[O-])c3)C2SC1` (centres unmarked) [P-75123, 7-1-(1H-4-nitroimidazolyl)acetyl!amino-3-5-(1H-1-methyltetrazolyl)thio!methyl-3-cephem-4-carboxylic acid], for which the MIC in assay [1] is 100 µg/mL (≈ 208 µM); in assay [2], 0.097 µg/mL (≈ 0.201 µM); in assay [4], 0.39 µg/mL (≈ 0.81 µM); in assay [5], above 100 µg/mL; in assay [6], 100 µg/mL (≈ 208 µM); in assay [7] it was 1.56 µg/mL (≈ 3.24 µM). Moreover, the MIC in assay [8] turned out to be 12.5 µg/mL (≈ 26 µM). The ED50 in assay [3] worked out at 35 mg/kg.
